Measured values taken from ChEMBL document CHEMBL1129601, “Inhibitors of acyl-CoA: cholesterol O-acyl transferase (ACAT) as hypocholesterolemic agents. CI-1011: an acyl sulfamate with unique cholesterol-lowering activity in animals fed noncholesterol-supplemented diets” (J Med Chem, 1996).
“And” between values parts separate entries of the source, which are not always exact repeats. Equal entries are not always repeated.

How the values were obtained:
Rattus norvegicus [1] = assay: Effect on the Cholesterol fed rats for total cholesterol level in rats at the dose of 0.001 mg/kg by Chroinc screen test; type: functional
Rattus norvegicus [2] = assay: Evaluated for %change in Normal, Chow fed rats for total cholesterol plasma level in rats at the dose of 30 mg/kg; type: functional
Rattus norvegicus [3] = assay: Effect on the plasma cholesterol level in rats at the dose of 3 mg/kg by Acute screen test; type: functional, organism-based; parameters: dose 3 mg/kg
Oryctolagus cuniculus [4] = assay: Effect on Rabbits (Fed a Cholesterol-Free Casein Diet ) for plasma cholesterol at the dose of 3 mg/kg (pretreatment); type: functional, organism-based; parameters: dose 3 mg/kg
Rattus norvegicus [5] = assay: Effect on the Cholesterol fed rats for total cholesterol level in rats at the dose of 1 mg/kg by Chroinc screen test; type: functional; note: unit not given here
Rattus norvegicus [6] = assay: Effect on the Cholesterol fed rats for HDL-C in rats at the dose of 0.1 mg/kg by Chroinc screen test; type: functional
Rattus norvegicus [7] = assay: Evaluated for %change in cholesterol fed rats for non-HDL-C at the dose of 0.01 mg/kg determined by Chronic screen test; type: functional
Rattus norvegicus [8] = assay: Evaluated for %change in cholesterol fed rats for non-HDL-C at the dose of 10 mg/kg determined by Chronic screen test; type: functional
Rattus norvegicus [9] = assay: Evaluated for %change in cholesterol fed rats at the dose of 1 mg/kg determined by Acute screen test; type: functional
Rattus norvegicus [10] = assay: Evaluated for %change in cholesterol fed rats for HDL-C at the dose of 0.001 mg/kg determined by Chronic screen test; type: functional
Oryctolagus cuniculus [11] = assay: Effect on Rabbits (Fed a Cholesterol-Free Casein Diet ) for plasma cholesterol at the dose of 10 mg/kg (pretreatment); type: functional, organism-based; parameters: dose 10 mg/kg
Rattus norvegicus [12] = assay: Effect on the Normal, Chow fed rats for Plasma total triglyceride level in rats at the dose of 10 mg/kg; type: functional, organism-based; parameters: dose 10 mg/kg
Rattus norvegicus [13] = assay: Effect on the plasma Cholesterol level in rats at the dose of 0.3 mg/kg by Acute screen test; type: functional, organism-based; parameters: dose 0.3 mg/kg
Rattus norvegicus [14] = assay: Evaluated for %change in cholesterol fed rats for total cholesterol at the dose of 10 mg/kg determined by Chronic screen test; type: functional
Rattus norvegicus [15] = assay: Evaluated for %change in cholesterol fed rats for HDL-C at the dose of 0.03 mg/kg determined by Chronic screen test; type: functional
Rattus norvegicus [16] = assay: Effect on the Cholesterol fed rats for HDL-C in rats at the dose of 10 mg/kg by Chroinc screen test; type: functional
Rattus norvegicus [17] = assay: Evaluated for %change in cholesterol fed rats for HDL-C at the dose of 1 mg/kg determined by Chronic screen test; type: functional
Rattus norvegicus [18] = assay: Effect on the Normal, Chow fed rats for Plasma total triglyceride level in rats at the dose of 30 mg/kg; type: functional, organism-based; parameters: dose 30 mg/kg
Rattus norvegicus [19] = assay: Effect on the Cholesterol fed rats for total cholesterol level in rats at the dose of 0.3 mg/kg by Chroinc screen test; type: functional
Rattus norvegicus [20] = assay: Effect on the Cholesterol fed rats for non-HDL-C in rats at the dose of 10 mg/kg by Chroinc screen test; type: functional
Rattus norvegicus [21] = assay: Effect on the Cholesterol fed rats for total cholesterol level in rats at the dose of 10 mg/kg by Chroinc screen test; type: functional; note: unit not given here
Rattus norvegicus [22] = assay: Evaluated for %change in cholesterol fed rats for non-HDL-C at the dose of 1 mg/kg determined by Chronic screen test; type: functional
Rattus norvegicus [23] = assay: Evaluated for %change in Normal, Chow fed rats for total cholesterol plasma level in rats at the dose of 10 mg/kg; type: functional
Rattus norvegicus [24] = assay: Evaluated for %change in cholesterol fed rats for non-HDL-C at the dose of 0.03 mg/kg determined by Chronic screen test; type: functional
Rattus norvegicus [25] = assay: Evaluated for %change in Normal, Chow fed for rats Plasma total triglyceride plasma level in rats at the dose of 10 mg/kg; type: functional
Rattus norvegicus [26] = assay: Effect on the Cholesterol fed rats for HDL-C in rats at the dose of 1 mg/kg by Chroinc screen test; type: functional; note: unit not given here
Rattus norvegicus [27] = assay: Evaluated for %change in cholesterol fed rats for HDL-C at the dose of 0.01 mg/kg determined by Chronic screen test; type: functional
Oryctolagus cuniculus [28] = assay: Effect on Rabbits (Fed a Cholesterol-Free Casein Diet ) for plasma cholesterol at the dose of 1 mg/kg (post treatment); type: functional, organism-based; parameters: dose 1 mg/kg
Rattus norvegicus [29] = assay: Evaluated for %change in cholesterol fed rats for non-HDL-C at the dose of 0.001 mg/kg determined by Chronic screen test; type: functional
Rattus norvegicus [30] = assay: Evaluated for %change in cholesterol fed rats at the dose of 10 mg/kg determined by Acute screen test; type: functional
Rattus norvegicus [31] = assay: Evaluated for %change in cholesterol fed rats for total cholesterol at the dose of 0.001 mg/kg determined by Chronic screen test; type: functional
Rattus norvegicus [32] = assay: Effect on the Cholesterol fed rats for non-HDL-C in rats at the dose of 1 mg/kg by Chroinc screen test; type: functional
Rattus norvegicus [33] = assay: Effect on the Cholesterol fed rats for total cholesterol level in rats at the dose of 0.03 mg/kg by Chroinc screen test; type: functional; note: unit not given here
Rattus norvegicus [34] = assay: Effect on the Cholesterol fed rats for non-HDL-C in rats at the dose of 0.1 mg/kg by Chroinc screen test; type: functional
Rattus norvegicus [35] = assay: Effect on the Cholesterol fed rats for HDL-C in rats at the dose of 0.001 mg/kg by Chroinc screen test; type: functional; note: unit not given here
Rattus norvegicus [36] = assay: Evaluated for %change in cholesterol fed rats for total cholesterol at the dose of 3 mg/kg determined by Chronic screen test; type: functional
Rattus norvegicus [37] = assay: Evaluated for %change in cholesterol fed rats for total cholesterol at the dose of 0.3 mg/kg determined by Chronic screen test; type: functional
Rattus norvegicus [38] = assay: Effect on the Cholesterol fed rats for non-HDL-C in rats at the dose of 0.03 mg/kg by Chroinc screen test; type: functional; note: unit not given here
Rattus norvegicus [39] = assay: Effect on the Cholesterol fed rats for total cholesterol level in rats at the dose of 0.1 mg/kg by Chroinc screen test; type: functional; note: unit not given here
Rattus norvegicus [40] = assay: Evaluated for %change in cholesterol fed rats at the dose of 3 mg/kg determined by Acute screen test; type: functional
Rattus norvegicus [41] = assay: Evaluated for %change in cholesterol fed rats for HDL-C at the dose of 3 mg/kg determined by Chronic screen test; type: functional
Rattus norvegicus [42] = assay: Evaluated for %change in cholesterol fed rats for non-HDL-C at the dose of 0.1 mg/kg determined by Chronic screen test; type: functional
Rattus norvegicus [43] = assay: Effect on the Normal, Chow fed rats for total cholesterol plasma level in rats at the dose of 3 mg/kg; type: functional, organism-based; parameters: dose 3 mg/kg
Rattus norvegicus [44] = assay: Effect on the Normal, Chow fed rats for total cholesterol plasma level in rats at the dose of 30 mg/kg; type: functional, organism-based; parameters: dose 30 mg/kg
Rattus norvegicus [45] = assay: Effect on the Normal, Chow fed rats for Plasma total triglyceride level in rats at the dose of 3 mg/kg; type: functional, organism-based; parameters: dose 3 mg/kg
Rattus norvegicus [46] = assay: Evaluated for %change in cholesterol fed rats for non-HDL-C at the dose of 0.3 mg/kg determined by Chronic screen test; type: functional
Rattus norvegicus [47] = assay: Evaluated for %change in cholesterol fed rats for total cholesterol at the dose of 1 mg/kg determined by Chronic screen test; type: functional
Rattus norvegicus [48] = assay: Evaluated for %change in cholesterol fed rats at the dose of 0.1 mg/kg determined by Acute screen test; type: functional
Rattus norvegicus [49] = assay: Evaluated for %change in cholesterol fed rats for HDL-C at the dose of 10 mg/kg determined by Chronic screen test; type: functional
Rattus norvegicus [50] = assay: Evaluated for %change in Normal, Chow fed for rats Plasma total triglyceride plasma level in rats at the dose of 30 mg/kg; type: functional

Question: Which TC (Rattus norvegicus [1]) does the source give for `CC(C)c1cc(C(C)C)c(CC(=O)NS(=O)(=O)Oc2c(C(C)C)cccc2C(C)C)c(C(C)C)c1` [AVASIMIBE] here?
Answer: Its TC is 551.

Question: What about the Change (Rattus norvegicus [2]) of the same compound?
Answer: The Change was -30%.

Question: What about the Plasma cholesterol (Rattus norvegicus [3]) of the same compound?
Answer: Its Plasma cholesterol is 66 mg/dL.

Question: What about the Plasma cholesterol (Oryctolagus cuniculus [4]) of the same compound?
Answer: Its Plasma cholesterol is 250 mg/dL.

Question: What about the TC (Rattus norvegicus [5]) of the same compound?
Answer: The TC was 86.

Question: And the HDL-C (Rattus norvegicus [6])?
Answer: The HDL-C was 16 and 18.

Question: And the Change (Rattus norvegicus [7])?
Answer: Its Change is 17%.

Question: And the Change (Rattus norvegicus [8])?
Answer: The Change was -84%.

Question: And the Change (Rattus norvegicus [9])?
Answer: The Change was -60%.

Question: What about the Change (Rattus norvegicus [10]) of the same compound?
Answer: The Change was -3%.

Question: What about the Plasma cholesterol (Oryctolagus cuniculus [11]) of the same compound?
Answer: Its Plasma cholesterol is 209 mg/dL.

Question: What about the Plasma TG (Rattus norvegicus [12]) of the same compound?
Answer: The Plasma TG was 75 mg/dL.

Question: And the Plasma cholesterol (Rattus norvegicus [13])?
Answer: Its Plasma cholesterol is 81 mg/dL.

Question: And the Change (Rattus norvegicus [14])?
Answer: The Change was -69%.

Question: What about the Change (Rattus norvegicus [15]) of the same compound?
Answer: The Change was -12%.

Question: And the HDL-C (Rattus norvegicus [16])?
Answer: The HDL-C was 36.

Question: And the Change (Rattus norvegicus [17])?
Answer: Its Change is 76%.

Question: And the Plasma TG (Rattus norvegicus [18])?
Answer: The Plasma TG was 58 mg/dL.

Question: And the TC (Rattus norvegicus [19])?
Answer: Its TC is 90.

Question: What about the Non-HDL-C (Rattus norvegicus [20]) of the same compound?
Answer: The Non-HDL-C was 33.

Question: And the TC (Rattus norvegicus [21])?
Answer: The TC was 69.

Question: What about the Change (Rattus norvegicus [22]) of the same compound?
Answer: The Change was -70%.

Question: And the Change (Rattus norvegicus [23])?
Answer: The Change was -25%.

Question: What about the Change (Rattus norvegicus [24]) of the same compound?
Answer: Its Change is -38%.

Question: What about the Change (Rattus norvegicus [25]) of the same compound?
Answer: Its Change is -55%.

Question: And the HDL-C (Rattus norvegicus [26])?
Answer: The HDL-C was 25.

Question: What about the Change (Rattus norvegicus [27]) of the same compound?
Answer: Its Change is -12%.

Question: What about the Plasma cholesterol (Oryctolagus cuniculus [28]) of the same compound?
Answer: The Plasma cholesterol was 184 mg/dL.

Question: What about the Change (Rattus norvegicus [29]) of the same compound?
Answer: Its Change is 3%.

Question: What about the Change (Rattus norvegicus [30]) of the same compound?
Answer: Its Change is -72%.

Question: And the Change (Rattus norvegicus [31])?
Answer: The Change was 3%.

Question: And the Non-HDL-C (Rattus norvegicus [32])?
Answer: Its Non-HDL-C is 61.

Question: What about the TC (Rattus norvegicus [33]) of the same compound?
Answer: The TC was 334.

Question: And the Non-HDL-C (Rattus norvegicus [34])?
Answer: The Non-HDL-C was 114 and 306.

Question: What about the HDL-C (Rattus norvegicus [35]) of the same compound?
Answer: The HDL-C was 16.

Question: And the Change (Rattus norvegicus [36])?
Answer: The Change was -59%.

Question: And the Change (Rattus norvegicus [37])?
Answer: Its Change is -60%.

Question: And the Non-HDL-C (Rattus norvegicus [38])?
Answer: The Non-HDL-C was 320.

Question: What about the TC (Rattus norvegicus [39]) of the same compound?
Answer: Its TC is 131 and 323.

Question: And the Change (Rattus norvegicus [40])?
Answer: Its Change is -64%.

Question: What about the Change (Rattus norvegicus [41]) of the same compound?
Answer: The Change was 140%.

Question: What about the Change (Rattus norvegicus [42]) of the same compound?
Answer: The Change was -45% and -41%.

Question: What about the Plasma TC (Rattus norvegicus [43]) of the same compound?
Answer: Its Plasma TC is 49 mg/dL.

Question: And the Plasma TC (Rattus norvegicus [44])?
Answer: Its Plasma TC is 41 mg/dL.

Question: What about the Plasma TG (Rattus norvegicus [45]) of the same compound?
Answer: The Plasma TG was 95 mg/dL.

Question: What about the Change (Rattus norvegicus [46]) of the same compound?
Answer: The Change was -66%.

Question: What about the Change (Rattus norvegicus [47]) of the same compound?
Answer: The Change was -61%.

Question: And the Change (Rattus norvegicus [48])?
Answer: The Change was -32%.

Question: What about the Change (Rattus norvegicus [49]) of the same compound?
Answer: The Change was 155%.

Question: And the Change (Rattus norvegicus [50])?
Answer: Its Change is -66%.
